Assay results published in the supplement of paper PMC10307832.

compound: O=c1ncccn1[C@@H]1O[C@H](CO)[C@@H](O)[C@H]1O [Zebularine] + CS(=O)(=O)N1CCN(Cc2cc3nc(-c4cccc5[nH]ncc45)nc(N4CCOCC4)c3s2)CC1 [Pictilisib] (partner 1 µM); experiment: relative viability (nuclei count vs DMSO), 5 days (fraction); higher = more cells survive; details: first compound 1 µM
Method in brief: (§1)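 The day after seeding in 1536-well plates, lung cancer cell lines were treated by pin tool with a single drug, or with a fixed anchor-drug dose together with five library-drug doses (not always all listed) in √10 steps. After 5 days, a combined fix-and-stain solution (final 0.05% Triton X-100, 1% formaldehyde, 1 ug/ml Hoechst) was added. Nuclei counted on 4× images gave relative viability as treated counts over vehicle counts, reported as the median of duplicate plates.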

Cell Line | relative viability
HOP-62 | 0.579
HCC-44 | 0.535
LU99A | 0.329
BEN | 0.56
HARA | 0.432
HCC-78 | 0.223
NCI-H322M | 0.496
LCLC-97TM1 | 0.184
A-427 | 0.835
NCI-H441 | 0.472
NCI-H1734 | 0.505
NCI-H460 | 0.424
NCI-H2347 | 0.8
NCI-H1395 | 0.681
201T | 0.729
NCI-H1915 | 1.07
HCC-827 | 1.19

Cell Line | relative viability
LXF-289 | 0.908
NCI-H23 | 0.536
NCI-H647 | 0.596
NCI-H1651 | 0.71
EPLC-272H | 0.342
NCI-H1792 | 0.288
NCI-H1355 | 0.45
NCI-H3122 | 0.669
NCI-H1437 | 0.559
NCI-H1755 | 0.554
HCC-15 | 0.826
NCI-H1793 | 0.472
PC-14 | 0.767
EKVX | 0.419
LC-2-ad | 0.509
NCI-H1944 | 0.375

same assay, conditions: first compound 3.162 µM

Cell Line | relative viability
HOP-62 | 0.608
HCC-44 | 0.648
LU99A | 0.305
BEN | 0.504
HARA | 0.392
HCC-78 | 0.192
NCI-H322M | 0.504
LCLC-97TM1 | 0.081
A-427 | 0.783
NCI-H441 | 0.438
NCI-H1734 | 0.385
NCI-H460 | 0.316
NCI-H2347 | 0.529
NCI-H1395 | 0.568
201T | 0.743
NCI-H1915 | 0.887

Cell Line | relative viability
HCC-827 | 0.977
LXF-289 | 0.769
NCI-H23 | 0.444
NCI-H647 | 0.381
NCI-H1651 | 0.732
NCI-H1792 | 0.267
NCI-H1355 | 0.272
NCI-H3122 | 0.575
NCI-H1437 | 0.453
NCI-H1755 | 0.433
HCC-15 | 0.424
NCI-H1793 | 0.372
PC-14 | 0.574
EKVX | 0.456
LC-2-ad | 0.421
NCI-H1944 | 0.363

same assay, conditions: first compound 10 µM

Cell Line | relative viability
HOP-62 | 0.284
HCC-44 | 0.375
LU99A | 0.324
BEN | 0.291
HCC-78 | 0.211
NCI-H322M | 0.439
LCLC-97TM1 | 0.138
A-427 | 0.686
NCI-H441 | 0.291
NCI-H1734 | 0.341
NCI-H460 | 0.212
NCI-H2347 | 0.439
NCI-H1395 | 0.493
201T | 0.709
NCI-H1915 | 0.774
HCC-827 | 0.835
LXF-289 | 0.792
NCI-H647 | 0.222
NCI-H1792 | 0.343
NCI-H1355 | 0.371
NCI-H3122 | 0.575
NCI-H1755 | 0.326
HCC-15 | 0.536
NCI-H1793 | 0.205
PC-14 | 0.151
LC-2-ad | 0.399
NCI-H1944 | 0.325

same assay, conditions: first compound 31.62 µM

Cell Line | relative viability
HOP-62 | 0.287
HCC-44 | 0.625
LU99A | 0.283
BEN | 0.385
HARA | 0.606
HCC-78 | 0.254
NCI-H322M | 0.538
LCLC-97TM1 | 0.124
A-427 | 0.433
NCI-H441 | 0.199
NCI-H1734 | 0.333
NCI-H460 | 0.243
NCI-H2347 | 0.558
NCI-H1395 | 0.606
201T | 0.671
NCI-H1915 | 1.02
HCC-827 | 0.738

Cell Line | relative viability
LXF-289 | 0.687
NCI-H23 | 0.499
NCI-H647 | 0.182
NCI-H1651 | 0.571
EPLC-272H | 0.297
NCI-H1792 | 0.184
NCI-H1355 | 0.426
NCI-H3122 | 0.613
NCI-H1437 | 0.451
NCI-H1755 | 0.484
HCC-15 | 0.666
NCI-H1793 | 0.269
PC-14 | 0.111
EKVX | 0.487
LC-2-ad | 0.258
NCI-H1944 | 0.41

same assay, conditions: first compound 100 µM

Cell Line | relative viability
HOP-62 | 0.175
HCC-44 | 0.323
LU99A | 0.198
BEN | 0.3
HARA | 0.35
HCC-78 | 0.197
NCI-H322M | 0.465
LCLC-97TM1 | 0.104
A-427 | 0.191
NCI-H441 | 0.188
NCI-H1734 | 0.303
NCI-H460 | 0.166
NCI-H2347 | 0.462
NCI-H1395 | 0.42
201T | 0.703
NCI-H1915 | 0.907
HCC-827 | 0.544

Cell Line | relative viability
LXF-289 | 0.294
NCI-H23 | 0.436
NCI-H647 | 0.114
NCI-H1651 | 0.418
EPLC-272H | 0.273
NCI-H1792 | 0.158
NCI-H1355 | 0.254
NCI-H3122 | 0.593
NCI-H1437 | 0.287
NCI-H1755 | 0.36
HCC-15 | 0.249
NCI-H1793 | 0.267
PC-14 | 0.0955
EKVX | 0.401
LC-2-ad | 0.158
NCI-H1944 | 0.347

compound: O=c1ncccn1[C@@H]1O[C@H](CO)[C@@H](O)[C@H]1O [Zebularine] + Nc1ncn([C@H]2C[C@H](O)[C@@H](CO)O2)c(=O)n1 [Decitabine] (partner 2 µM); experiment: as above; details: first compound 1 µM
Method in brief: as §1

Cell Line | relative viability
HOP-62 | 0.205
HCC-44 | 0.981
LU99A | 0.906
